# Like-named read-outs stand apart in the source and are kept apart here.
# Assays:
# [1] = tested on: cellular dehydrogenase activity
# nuOXPHOS transcripts = assay type: cell-based, mouse
# OXPHOS gene expression = assay type: cell-based, mouse
# [2] = tested on: mitochondrial membrane potential; assay type: cell-based, mouse
# mtOXPHOS transcripts = assay type: cell-based, mouse
# cytochrome c = assay type: cell-based, mouse
# reactive oxygen species = assay type: cell-based, mouse
# [3] = Conc 20 μM, normalized score vs mock-treated (DMSO) wells
# [4] = normalized composite Z-score vs mock-treated (DMSO) wells, Conc 20 μM
# [5] = composite Z-score vs DMSO, Conc 20 μM
# [6] = composite Z-score vs mock-treated (DMSO) wells, Conc 20 μM
# [7] = Table 7, C2C12 myotubes, 48 h, composite Z-score
# [8] = 20 μM, composite Z-score vs DMSO
# [9] = 25.78 μM, composite Z-score vs DMSO
# [10] = composite Z-score vs DMSO wells, Conc 20 μM
structure (smiles),measurement,setting,value
N=c1ccn2c(n1)O[C@H]1[C@H](O)[C@@H](CO)O[C@H]12 [ancitabine],MTT (composite Z-score),[1]; [3],−2.731
same,nucOX (composite Z-score),nuOXPHOS transcripts; [3],−1.182
same,GE-HTS (composite Z-score),OXPHOS gene expression; [3],−1.115
same,Viability (composite Z-score),C2C12 myotubes; [3],−0.655
same,ΔΨm (composite Z-score),[2]; [3],−0.986
same,mitoOX (composite Z-score),mtOXPHOS transcripts; [3],−0.726
same,cyt c (composite Z-score),cytochrome c; [3],−0.158
same,ROS (composite Z-score),reactive oxygen species; [3],−0.189
C=C1CC[C@@H]2[C@](C)(CO)[C@H](O)CC[C@@]2(C)[C@@H]1C/C=C1/C(=O)OC[C@H]1O [andrographolide],MTT,[1]; [4],−0.901
same,nucOX,nuOXPHOS transcripts; [4],−0.698
same,GE-HTS,OXPHOS gene expression; [4],−1.323
same,Viability,C2C12 myotubes; [4],−0.686
same,ΔΨm,[2]; [4],−0.165
same,mitoOX,mtOXPHOS transcripts; [4],−2.361
same,cyt c,cytochrome c; [4],−0.044
same,ROS,reactive oxygen species; [4],−1.813
"C[C@]12C=CC(=O)C=C1CC[C@@H]1[C@@H]2CC[C@]2(C)C(=O)CC[C@@H]12 [androsta-1,4-dien-3,17-dione]",MTT,[1]; [5],−0.500
same,nucOX,nuOXPHOS transcripts; [5],−0.143
same,GE-HTS,OXPHOS gene expression; [5],−0.180
same,Viability,C2C12 myotubes; [5],0.162
same,ΔΨm,[2]; [5],0.152
same,mitoOX,mtOXPHOS transcripts; [5],−0.189
same,cyt c,cytochrome c; [5],0.261
same,ROS,reactive oxygen species; [5],0.068
"C=C1[C@@H]2CC[C@@]3(C)[C@H](c4ccoc4)OC(=O)C[C@]13O[C@H]1CC(=O)C(C)(C)[C@H](CC(=O)OC)[C@]12C [angolensic acid, methyl ester]",MTT,[1]; [6],0.322
same,nucOX,nuOXPHOS transcripts; [6],0.729
same,GE-HTS,OXPHOS gene expression; [6],0.827
same,Viability,C2C12 myotubes; [6],1.019
same,ΔΨm,[2]; [6],0.163
same,mitoOX,mtOXPHOS transcripts; [6],0.813
same,cyt c,cytochrome c; [6],−0.204
same,ROS,reactive oxygen species; [6],0.465
"COc1ccc2c(=O)c(CC(=O)O)coc2c1 [anhydrobrazilic acid, reference compound]",MTT,[1]; [4],−1.007
same,nucOXPHOS Z,nuOXPHOS transcripts; [7],1.56
same,nucOX,nuOXPHOS transcripts; [4],1.559
same,GE-HTS,OXPHOS gene expression; [4],1.730
same,Viability,C2C12 myotubes; [4],−0.072
same,ΔΨm,[2]; [4],−0.353
same,mito-OXPHOS Z,mtOXPHOS transcripts; [7],1.68
same,mitoOX,mtOXPHOS transcripts; [4],1.678
same,cyt c,cytochrome c; [4],0.579
same,ROS,reactive oxygen species; [4],0.388
O[C@H]1[C@H](O)[C@@H](O)C2OC[C@H]1O2 [anhydroglucose],MTT,[1]; [5],0.041
same,nucOX,nuOXPHOS transcripts; [5],0.322
same,GE-HTS,OXPHOS gene expression; [5],−0.046
same,Viability,C2C12 myotubes; [5],0.168
same,ΔΨm,[2]; [5],−0.480
same,mitoOX,mtOXPHOS transcripts; [5],−0.745
same,cyt c,cytochrome c; [5],0.688
same,ROS,reactive oxygen species; [5],0.238
CC1=C(/C=C/C(C)=C/C=C/C(C)=C/C=C/C=C(C)/C=C/C=C(C)/C=C/[C@@]23O[C@]2(C)C[C@@H](O)CC3(C)C)C(C)(C)C[C@H](O)C1 [antheraxanthin],MTT,[1]; [4],−0.804
same,nucOX,nuOXPHOS transcripts; [4],0.026
same,GE-HTS,OXPHOS gene expression; [4],0.013
same,Viability,C2C12 myotubes; [4],−0.496
same,ΔΨm,[2]; [4],−0.305
same,mitoOX,mtOXPHOS transcripts; [4],−0.011
same,cyt c,cytochrome c; [4],−0.206
same,ROS,reactive oxygen species; [4],0.244
O=c1cc(-c2ccc(O)cc2)oc2cc(O[C@@H]3O[C@H](CO)[C@@H](O)[C@H](O)[C@H]3O[C@@H]3OC[C@](O)(CO)[C@H]3O)cc(O)c12 [apiin],MTT,[1]; [5],−1.444
same,nucOX,nuOXPHOS transcripts; [5],−0.150
same,GE-HTS,OXPHOS gene expression; [5],−0.032
same,Viability,C2C12 myotubes; [5],−0.631
same,ΔΨm,[2]; [5],0.029
same,mitoOX,mtOXPHOS transcripts; [5],0.250
same,cyt c,cytochrome c; [5],−0.697
same,ROS,reactive oxygen species; [5],0.322
CN[C@@H]1[C@@H](O[C@H]2O[C@H](CO)[C@@H](N)[C@H](O)[C@H]2O)OC2C[C@@H](N)[C@@H](O[C@H]3[C@H](O)[C@@H](O)[C@H](N)C[C@@H]3N)OC2[C@@H]1O (some centres unmarked) [apramycin],MTT,[1]; [5],−0.808
same,nucOX,nuOXPHOS transcripts; [5],0.413
same,GE-HTS,OXPHOS gene expression; [5],0.477
same,Viability,C2C12 myotubes; [5],−1.979
same,ΔΨm,[2]; [5],−0.407
same,mitoOX,mtOXPHOS transcripts; [5],0.494
same,cyt c,cytochrome c; [5],0.223
same,ROS,reactive oxygen species; [5],−0.105
COC(=O)C1=CCCN(C)C1 [arecoline],MTT,[1]; [8],−0.452
same,MTT,[1]; [9],−0.607
same,nucOX,nuOXPHOS transcripts; [8],−0.261
same,nucOX,nuOXPHOS transcripts; [9],0.385
same,GE-HTS,OXPHOS gene expression; [8],−0.545
same,GE-HTS,OXPHOS gene expression; [9],0.098
same,Viability,C2C12 myotubes; [8],0.018
same,Viability,C2C12 myotubes; [9],0.481
same,ΔΨm,[2]; [8],−0.451
same,ΔΨm,[2]; [9],−0.281
same,mitoOX,mtOXPHOS transcripts; [8],−1.072
same,mitoOX,mtOXPHOS transcripts; [9],−0.513
same,cyt c,cytochrome c; [8],0.839
same,cyt c,cytochrome c; [9],0.503
same,ROS,reactive oxygen species; [8],−1.032
same,ROS,reactive oxygen species; [9],−1.084
C[C@@H]1CC[C@H]2[C@@H](C)C(=O)O[C@@H]3O[C@@]4(C)CC[C@@H]1[C@]32OO4 [artemisinin],MTT,[1]; [10],0.616
same,nucOX,nuOXPHOS transcripts; [10],0.537
same,GE-HTS,OXPHOS gene expression; [10],0.704
same,Viability,C2C12 myotubes; [10],0.336
same,ΔΨm,[2]; [10],−0.832
same,mitoOX,mtOXPHOS transcripts; [10],0.903
same,cyt c,cytochrome c,0.522
same,cyt c,cytochrome c; [10],1.104
same,ROS,reactive oxygen species; [10],0.123
CCCCCC(=O)Cc1cc(O)cc(O)c1C(=O)Oc1cc(CC(=O)CCCCC)c(C(=O)O)c(OC)c1 [arthonioic acid],MTT,[1]; [5],−2.597
same,nucOX,nuOXPHOS transcripts; [5],−0.590
same,GE-HTS,OXPHOS gene expression; [5],−0.668
same,Viability,C2C12 myotubes; [5],−0.413
same,ΔΨm,[2]; [5],−0.493
same,mitoOX,mtOXPHOS transcripts; [5],−0.657
same,cyt c,cytochrome c; [5],−0.019
same,ROS,reactive oxygen species; [5],1.167
